For this assay, the target named is Urease (Canavalia ensiformis, UniProt P07374). As to the kind of experiment: Inhibition of jack bean urease using urea as substrate pretreated for 15 mins followed by substrate addition by phenol red based spectrophotometric method.
Urease, sequence (P07374 whole entry): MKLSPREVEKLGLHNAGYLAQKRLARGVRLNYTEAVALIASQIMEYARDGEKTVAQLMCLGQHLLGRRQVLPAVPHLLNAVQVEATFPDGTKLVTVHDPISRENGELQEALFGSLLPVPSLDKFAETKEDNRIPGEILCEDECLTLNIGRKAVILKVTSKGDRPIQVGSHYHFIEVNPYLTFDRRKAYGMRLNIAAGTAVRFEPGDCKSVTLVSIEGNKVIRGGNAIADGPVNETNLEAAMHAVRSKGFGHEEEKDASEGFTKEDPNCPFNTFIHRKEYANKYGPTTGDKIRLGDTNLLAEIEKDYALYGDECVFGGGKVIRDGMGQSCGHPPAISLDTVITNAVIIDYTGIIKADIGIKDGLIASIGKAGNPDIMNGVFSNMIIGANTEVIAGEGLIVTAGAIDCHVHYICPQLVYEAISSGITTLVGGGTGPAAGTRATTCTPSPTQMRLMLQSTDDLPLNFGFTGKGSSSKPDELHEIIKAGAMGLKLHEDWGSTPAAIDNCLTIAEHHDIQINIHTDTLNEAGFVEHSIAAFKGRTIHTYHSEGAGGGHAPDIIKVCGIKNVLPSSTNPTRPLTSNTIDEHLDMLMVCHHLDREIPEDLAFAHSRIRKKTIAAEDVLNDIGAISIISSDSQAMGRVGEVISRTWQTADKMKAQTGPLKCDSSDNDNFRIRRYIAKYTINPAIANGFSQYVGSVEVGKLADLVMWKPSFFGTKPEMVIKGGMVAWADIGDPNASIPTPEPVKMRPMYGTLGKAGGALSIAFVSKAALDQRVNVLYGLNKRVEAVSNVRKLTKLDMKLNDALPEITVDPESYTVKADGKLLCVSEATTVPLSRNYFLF
Turning to `Cn1c(S)nnc1Cn1c(C2CC2)nc2cc(Cl)c(Cl)cc21`, the IC50 – broadly, the point on the concentration scale where inhibition reaches its midpoint – worked out at 170 nM. For the compound `O=C(Cn1c(C2CC2)nc2cc(Cl)c(Cl)cc21)N/N=C/c1cc(Cl)ccc1O`, the IC50 amounted to 150 nM.

Consider `O=C(Cn1c(C2CC2)nc2cc(Cl)c(Cl)cc21)N/N=C/c1ccc(F)c(Br)c1`, for which the IC50 is 60 nM. The value for `CN(C)c1ccc(/C=N/NC(=O)Cn2c(C3CC3)nc3cc(Cl)c(Cl)cc32)cc1` was 1490 nM; that for `NC(N)=S` [THIOUREA] was 560 nM; that for `Clc1cc2nc(C3CC3)[nH]c2cc1Cl` was 170 nM. The value for `O=C(Cn1c(C2CC2)nc2cc(Cl)c(Cl)cc21)N/N=C/c1cc(Br)ccc1O` was 140 nM; that for `COC(=O)Cn1c(C2CC2)nc2cc(Cl)c(Cl)cc21` was 1120 nM; that for `O=C(Cn1c(C2CC2)nc2cc(Cl)c(Cl)cc21)N/N=C/c1ccccc1O` was 220 nM.

Regarding `O=C(Cn1c(C2CC2)nc2cc(Cl)c(Cl)cc21)N/N=C/c1ccc(Cl)cc1`, the IC50 is 290 nM.

For the compound `CCn1c(S)nnc1Cn1c(C2CC2)nc2cc(Cl)c(Cl)cc21`, the IC50 is 380 nM. As to `CCNC(=S)NNC(=O)Cn1c(C2CC2)nc2cc(Cl)c(Cl)cc21`, the IC50 came to 280 nM.

On to `Sc1nnc(Cn2c(C3CC3)nc3cc(Cl)c(Cl)cc32)o1`, for which the IC50 was found to be 1340 nM.

With `O=C(Cn1c(C2CC2)nc2cc(Cl)c(Cl)cc21)N/N=C/c1ccccc1`, the IC50 came out at 2070 nM. Next, `CNC(=S)NNC(=O)Cn1c(C2CC2)nc2cc(Cl)c(Cl)cc21`: 50 to 60 nM; `NNC(=O)Cn1c(C2CC2)nc2cc(Cl)c(Cl)cc21`: 1920 nM.

These data come from ChEMBL document CHEMBL4033708, “Synthesis and molecular docking study of some 5,6-dichloro-2-cyclopropyl-1H-benzimidazole derivatives bearing triazole, oxadiazole, and imine functionalities as potent inhibitors of urease” (Bioorg Med Chem Lett, 2017).
